Data published in ChEMBL document CHEMBL1127112, “Synthesis and pharmacologic activity of hydroxyacetophenone-substituted benzophenone/xanthone leukotriene B4 receptor antagonists” (Bioorg Med Chem Lett, 1993).

species: Homo sapiens; assay: Compound was evaluated for inhibition of LTB4 induced chemotaxis of human neutrophils; type: functional

| IC50 [µM] | Compound |
| --- | --- |
| 0.32 | CCc1cc(C(C)=O)c(O)cc1OCCCOc1ccc2c(=O)c3cc(C(=O)O)ccc3oc2c1CCC(=O)O |
| 6 | COc1ccc(/C=C/CCCCOc2ccc(C(=O)c3cccc(C(=O)O)c3)cc2CCC(=O)O)cc1 |
| 7.4 | CCc1cc(C(C)=O)c(O)cc1OCCCCCC(C)(C)c1nn[nH]n1 [LY-255283] |
| 16 | CCc1cc(C(C)=O)c(O)cc1OCCCOc1ccc(C(=O)c2cccc(C(=O)O)c2)cc1CCC(=O)O |
